Data: US20060100105A1, “Agents containing carboxylic acid and the use of the same in plant cultivation” (priority 2002, published 2006)

System: Winter oilseed rape (cv. Pronto)
Test: Shoot elongation in winter oilseed rape
Assay type: in vivo
Details: active ingredient alone
Protocol: The tank mixers employed in Example 1 are prepared by mixing an emulsion concentrate with a metconazole content of 90 g/l and an aqueous concentrate with mepiquat chloride content of 600 g/l using a magnetic stirrer (experiment T1).
Winter oilseed rape (cv. Pronto) was sown in autumn and approximately one month later treated as specified in Table 3. Shoot elongation and root development were assessed a few weeks later. The elongation results are compiled in Table 3.

| Structure (SMILES) | shortening effect (in words) |
| --- | --- |
| CC1(C)CCC(Cc2ccc(Cl)cc2)C1(O)Cn1cncn1 (centres unmarked) [Metconazole, metconazole] | very pronounced |
| C[N+]1(C)CCCCC1.[Cl-] [mepiquat-chloride, N,N-dimethylpiperidinium chloride] | only results in some degree of shortening at scoring date 2 |
